Measured values reported in paper PMC10458458, “Characterization of Anticancer Effects of the Analogs of DJ4, a Novel Selective Inhibitor of ROCK and MRCK Kinases” (Pharmaceuticals, 2023).

Key:
Assay in all cases: NCI-60 screen (SRB)
Format in all cases: cell-based, human
[1] = system: PC-3; conditions: PC-3 (Prostate Cancer), 10 µM, 48 h; negative = cell death vs time zero
Source text: (§1) The selected active compounds were screened at NCI, as a part of In Vitro Cell Line Screening Project (IVCLSP), for their effect on cell growth in 60 different cancer cell lines. The 60 human cancer cell line panel included leukemia, melanoma, non-small cell lung cancer, colon, central nervous system (CNS), ovarian, renal, prostate, and breast cancer cell lines. The detailed procedure and applications of NCI-60 cell line screening can be found at https://dtp.cancer.gov/discovery_development/nci-60/default.htm (accessed on 9 January 2023). Briefly, cells were plated in 96-well plates and incubated for 24 h. One set of cells was fixed with trichloroacetic acid at time 0 h (Tz), and SRB (sulphorhodamine B) assays were performed to quantify the cells. The remaining set of cells were treated with 10 µM single concentration of each compound and incubated for 48 h (Te) after which the cells were fixed, and the SRB assays were performed. Data are presented as percent growth relative to the control as 100% according to the following calculations:
(§2) When Te >/= Tz. Growth(%)=Te−Tz/C−Tz∗100 and when Te < Tz. (1) Growth(%)=Te−Tz/Tz∗100
(§3) Values between 0–100 indicate cell growth, zero (0) indicates no cell growth, values < 0 indicate cell death.

[2] = system: SK-OV-3; conditions: SK-OV-3 (Ovarian Cancer), 10 µM, 48 h; negative = cell death vs time zero
Source text: as §1, §2, §3

[3] = system: HCC-2998; conditions: for percent cell growth: HCC-2998 (Colon Cancer), 10 µM, 48 h, negative = cell death vs time zero
Source text: as §1, §2, §3

[4] = system: UACC-257; conditions: UACC-257 (Melanoma), 10 µM, 48 h; negative = cell death vs time zero
Source text: as §1, §2, §3

[5] = system: DU-145; conditions: DU-145 (Prostate Cancer), 10 µM, 48 h; negative = cell death vs time zero
Source text: as §1, §2, §3

[6] = system: M14; conditions: M14 (Melanoma), 10 µM, 48 h; negative = cell death vs time zero
Source text: as §1, §2, §3

[7] = system: HL-60(TB); conditions: HL-60(TB) (Leukemia), 10 µM, 48 h; negative = cell death vs time zero
Source text: as §1, §2, §3

[8] = system: NCI/ADR-RES; conditions: for percent cell growth: NCI/ADR-RES (Ovarian Cancer), 10 µM, 48 h, negative = cell death vs time zero
Source text: as §1, §2, §3

[9] = system: U251; conditions: U251 (CNS Cancer), 10 µM, 48 h; negative = cell death vs time zero
Source text: as §1, §2, §3

[10] = system: KM12; conditions: KM12 (Colon Cancer), 10 µM, 48 h; negative = cell death vs time zero
Source text: as §1, §2, §3

[11] = system: OVCAR-5; conditions: OVCAR-5 (Ovarian Cancer), 10 µM, 48 h; negative = cell death vs time zero
Source text: as §1, §2, §3

[12] = system: MOLT-4; conditions: MOLT-4 (Leukemia), 10 µM, 48 h; negative = cell death vs time zero
Source text: as §1, §2, §3

[13] = system: MDA-MB-435; conditions: MDA-MB-435 (Melanoma), 10 µM, 48 h; negative = cell death vs time zero
Source text: as §1, §2, §3

[14] = system: NCI-H322M; conditions: NCI-H322M (Non-Small Cell Lung Cancer), 10 µM, 48 h; negative = cell death vs time zero
Source text: as §1, §2, §3

[15] = system: EKVX; conditions: EKVX (Non-Small Cell Lung Cancer), 10 µM, 48 h; negative = cell death vs time zero
Source text: as §1, §2, §3

[16] = system: HS 578T; conditions: HS 578T (Breast Cancer), 10 µM, 48 h; negative = cell death vs time zero
Source text: as §1, §2, §3

[17] = system: OVCAR-3; conditions: OVCAR-3 (Ovarian Cancer), 10 µM, 48 h; negative = cell death vs time zero
Source text: as §1, §2, §3

[18] = system: LOX IMVI; conditions: LOX IMVI (Melanoma), 10 µM, 48 h; negative = cell death vs time zero
Source text: as §1, §2, §3

[19] = system: SF-539; conditions: SF-539 (CNS Cancer), 10 µM, 48 h; negative = cell death vs time zero
Source text: as §1, §2, §3

[20] = system: HOP-92; conditions: HOP-92 (Non-Small Cell Lung Cancer), 10 µM, 48 h; negative = cell death vs time zero
Source text: as §1, §2, §3

[21] = system: RPMI-8226; conditions: RPMI-8226 (Leukemia), 10 µM, 48 h; negative = cell death vs time zero
Source text: as §1, §2, §3

[22] = system: SK-MEL-2; conditions: SK-MEL-2 (Melanoma), 10 µM, 48 h; negative = cell death vs time zero
Source text: as §1, §2, §3

[23] = system: UACC-62; conditions: UACC-62 (Melanoma), 10 µM, 48 h; negative = cell death vs time zero
Source text: as §1, §2, §3

[24] = system: NCI-H522; conditions: NCI-H522 (Non-Small Cell Lung Cancer), 10 µM, 48 h; negative = cell death vs time zero
Source text: as §1, §2, §3

[25] = system: NCI-H460; conditions: NCI-H460 (Non-Small Cell Lung Cancer), 10 µM, 48 h; negative = cell death vs time zero
Source text: as §1, §2, §3

[26] = system: MDA-MB-468; conditions: MDA-MB-468 (Breast Cancer), 10 µM, 48 h; negative = cell death vs time zero
Source text: as §1, §2, §3

[27] = system: HCT-15; conditions: HCT-15 (Colon Cancer), 10 µM, 48 h; negative = cell death vs time zero
Source text: as §1, §2, §3

Row | SMILES | percent cell growth [1] [%] | percent cell growth [2] [%] | percent cell growth [3] [%] | percent cell growth [4] [%] | percent cell growth [5] [%] | percent cell growth [6] [%] | percent cell growth [7] [%] | percent cell growth [8] [%] | percent cell growth [9] [%] | percent cell growth [10] [%] | percent cell growth [11] [%] | percent cell growth [12] [%] | percent cell growth [13] [%] | percent cell growth [14] [%] | percent cell growth [15] [%] | percent cell growth [16] [%] | percent cell growth [17] [%] | percent cell growth [18] [%] | percent cell growth [19] [%] | percent cell growth [20] [%] | further results
1 | Cl.O=C1NC(=NCCc2ccccc2)SC1=Cc1c[nH]c2ncccc12 (mixture of isomers) [DJ4-HCl] | 19.2 | 2.1 | 66.2 | −1.7 | 15.3 | 31.7 | −6.6 | 58.4 | 7.6 | 9.3 | 18.1 | 8.6 | 18.5 | 19.6 | 40.9 | 8.8 | 3.4 | 8.3 | −37.2 | 11.8 | percent cell growth [21]: 38.7%; percent cell growth [22]: −4.6%; percent cell growth [23]: −1.3%; percent cell growth [24]: 4.3%; percent cell growth [25]: 15.1%; percent cell growth [26]: −2.1%; percent cell growth [27]: 33.5%
2 | O=C1N/C(=N\CCc2ccccc2)S/C1=C/c1c[nH]c2ncccc12 [DJ4] | 25.9 | 27.0 | 53.9 | 14.6 | 20.7 | 29.9 | 6.8 | 72.9 | 15.8 | 13.1 | 37.8 | 11.4 | 21.0 | 5.2 | 46.0 | 8.8 | 5.6 | 16.3 | 0.4 | −9.7 | IC50 ([3]; Homo sapiens, HCC-2998 colon cancer cells, NCI-60 screen): > 10 µM; IC50 ([8]; Homo sapiens, NCI/ADR-RES ovarian cancer cell line, NCI-60 screen): > 10 µM; percent cell growth [21]: 39.2%; percent cell growth [22]: 28.8%; percent cell growth [23]: −1.4%; percent cell growth [24]: 26.6%; percent cell growth [25]: 14.1%; percent cell growth [26]: −14.5%; percent cell growth [27]: 36.5%
